What was measured:
[1] = vs CCK-33; cited from earlier work
[2] = target: T1, Pancreatic CCK Receptor (Rattus norvegicus, UniProt P30551); assay: Pancreatic Cholecystokinin Receptor Binding Assay (125I-CCK-8); conditions: added as protease inhibitors
T1 construct: Pancreatic receptor membranes were prepared by homogenzing a gram of fresh rat pancreas tissue; from tissue; host or cells: rat pancreas membranes
T1 sequence (P30551 1-444): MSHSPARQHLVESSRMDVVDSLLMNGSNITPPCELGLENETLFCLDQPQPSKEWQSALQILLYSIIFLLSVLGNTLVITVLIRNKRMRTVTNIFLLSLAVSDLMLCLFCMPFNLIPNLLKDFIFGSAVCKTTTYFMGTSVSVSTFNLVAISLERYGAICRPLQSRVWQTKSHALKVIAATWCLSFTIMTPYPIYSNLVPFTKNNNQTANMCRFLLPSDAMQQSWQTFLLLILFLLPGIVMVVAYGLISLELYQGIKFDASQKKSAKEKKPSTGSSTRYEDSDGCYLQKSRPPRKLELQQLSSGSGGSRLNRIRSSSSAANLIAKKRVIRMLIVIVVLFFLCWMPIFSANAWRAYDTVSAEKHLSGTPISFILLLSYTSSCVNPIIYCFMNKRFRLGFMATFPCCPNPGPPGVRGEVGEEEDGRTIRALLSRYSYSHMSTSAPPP
Protocol: Radiolabeled CCK-8 was purchased from New England Nullear as ^125 I-CCK-8. Receptor binding was performed according to Innis and Snyder Proc. Natl. Acad. Sci., 77, 6917 (1980), with the minor modification of adding the additional protease inhibitors, phenylmethane sulfonyl fluoride (PMSF) and o-phenanthroline, which have no effect on the ^125 I-CCK receptor binding assay. All assays were performed in triplicate. Pancreatic receptor membranes were prepared by homogenzing a gram of fresh rat pancreas tissue in 30 ml TRIS-HCl (50 mM), pH 7.7 using a Brinkman polytron PT10 (Brinkman). The homogenate was washed twice and collected by centrifugation at 48,000×g at 4° C. for 10 minutes. The membranes were resuspended in assay buffer consisting of 5 mM dithiothieitol, 0.1 mM bacitiacin, 5 mM MgCl2 ·H2 O, 0.2% heat denatured BSA, 1.2 mM PMSF and 0.5 mM O-phenanthroline at a concentration of 100 ml per gram of pancreas. […] The reaction mixtures were mixed briefly and placed in a 37° C. water bath with gentle shaking for 30 minutes. […] The filters were washed with 3×4 ml of the same buffer and the radioactivity associated with the filters was counted in a Beckman Gamma 5500 counter. […] The dried samples were then brought up in methanol/H2 O (1:1) and ready for assay.

[3] = system: gram-positive bacteria; conditions: cited from earlier work
[4] = system: gastric acid secretion; conditions: cited from earlier work

For “C-terminal octapeptide: C-terminal octapeptide of CCK”, the “efficacy relative to CCK-33” value [1] is given as “same efficacy”.

For `O=S(=O)(F)Cc1ccccc1` [phenylmethane sulfonyl fluoride (PMSF), phenylmethane sulfonyl fluoride], the “effect on the 125I-CCK receptor binding assay” value [2] was “no effect”.

For `CC1=C\[C@@H](O)CC(=O)Cc2nc(co2)C(=O)N2CCC=C2C(=O)O[C@H](C(C)C)[C@H](C)/C=C/C(=O)NC\C=C\1` [Virginiamycin M1], the antibacterial specificity [3] is given as “generally specific for gram-positive bacteria”.

For `c1cnc2c(c1)ccc1cccnc12` [o-phenanthroline], the “effect on the 125I-CCK receptor binding assay” value [2] was “no effect”.

For Gastrin-17, the “potency for stimulating gastric acid secretion relative to Gastrin-13” value ([4]; vs Gastrin-13) is listed as 2.5 times more potent and the “potency for stimulating gastric acid secretion relative to Gastrin-34” value ([4]; vs Gastrin-34) is listed as 5 times more potent.
